Assay: Stability in a cosmetic preparation (clear gel), peptide content after storage
Type: physicochemical

loss of active (after 1 months at 40° C.) | loss of active (after 3 months storage at 40° C.) | Substance
52% | – | Palm-Lys-Val-Lys-OH*2MPAA [MPAA salt]
– | −19% | Palm-Lys-Val-Lys-OH*2MA [MA salt]

Reference: patent publication US20260209269A1, “MANDELIC ACID SALT OF PALMITOYL LYSYLVALYL-LYSINE” (DSM IP Assets B.V., priority 2022, published 2026)
